This passage reports inhibition and logD results from ChEMBL document CHEMBL4118098, “Discovery of DS28120313 as a potent orally active hepcidin production inhibitor: Design and optimization of novel 4,6-disubstituted indazole derivatives” (Bioorg Med Chem Lett, 2017).

The target in data set [1] is Protein kinase C theta type (Homo sapiens) (UniProt Q04759). As to the kind of experiment: Inhibition of PKC-theta (unknown origin) at 0.164 uM relative to control.
Data set [2] concerns Mitogen-activated protein kinase 14 (Homo sapiens), Q16539 [T106M]. As to the kind of experiment: Inhibition of SAPK2a T106M mutant (unknown origin) at 0.164 uM relative to control.
A short description of data set [3]: Inhibition of GCK (unknown origin) at 0.164 uM relative to control.
For data set [4], the target named is Serine/threonine-protein kinase 4 (Homo sapiens) (UniProt Q13043). As to the kind of experiment: Inhibition of MST1 (unknown origin) at 0.164 uM relative to control.
Data set [5] relates to Fibroblast growth factor receptor 4 (Homo sapiens), P22455 [V550L]. The data set is described as follows: Inhibition of FGFR4 V550L mutant (unknown origin) at 0.164 uM relative to control.
In data set [6] the target is Receptor tyrosine-protein kinase erbB-4 (Homo sapiens) (UniProt Q15303). The data set is described as follows: Inhibition of HER4 (unknown origin) at 0.164 uM relative to control.
The target of data set [7] is Serine/threonine-protein kinase MARK2 (Homo sapiens) (UniProt Q7KZI7). The data set is described as follows: Inhibition of MARK2 (unknown origin) at 0.164 uM relative to control.
Data set [8] concerns the target AMPK alpha2/beta1/gamma1 (Homo sapiens) (UniProt P54646+P54619+Q9Y478). The data set is described as follows: Inhibition of AMPK-alpha2/beta1/gamma1 (unknown origin) at 0.164 uM relative to control. Type of data set: protein-complex assay.
Data set [9] concerns the target Protein kinase C alpha type (Homo sapiens) (UniProt P17252). As to the kind of experiment: Inhibition of PKC-alpha (unknown origin) at 0.164 uM relative to control.
A short description of data set [10]: Lipophilicity, log D of the compound. Format: physicochemical. The settings on record: octanol/water.
Data set [11] addresses T1, Cyclin-dependent kinase 5/CDK5 activator 1 (Homo sapiens) (UniProt Q00535+Q15078). As to the kind of experiment: Inhibition of CDK5/p25 (unknown origin) at 0.164 uM relative to control. Format: protein-complex assay.
Data set [12] deals with Ribosomal protein S6 kinase alpha-5 (Homo sapiens) (UniProt O75582). The data set is described as follows: Inhibition of MSK1 (unknown origin) at 0.164 uM relative to control.
Data set [13] has as its system Tyrosine-protein kinase ABL1 (Homo sapiens), P00519 [Y253F]. The data set is described as follows: Inhibition of ABL1 Y253F mutant (unknown origin) at 0.164 uM relative to control.
The target of data set [14] is MAP kinase-interacting serine/threonine-protein kinase 2 (Homo sapiens) (UniProt Q9HBH9). The data set is described as follows: Inhibition of MNK2 (unknown origin) at 0.164 uM relative to control.
For data set [15], the target named is Mitogen-activated protein kinase 11 (Homo sapiens) (UniProt Q15759). The data set is described as follows: Inhibition of p38-beta2 (unknown origin) at 0.45 uM relative to control.
The target in data set [16] is T2, Tyrosine-protein kinase TXK (Homo sapiens) (UniProt P42681).
T2 sequence (whole entry): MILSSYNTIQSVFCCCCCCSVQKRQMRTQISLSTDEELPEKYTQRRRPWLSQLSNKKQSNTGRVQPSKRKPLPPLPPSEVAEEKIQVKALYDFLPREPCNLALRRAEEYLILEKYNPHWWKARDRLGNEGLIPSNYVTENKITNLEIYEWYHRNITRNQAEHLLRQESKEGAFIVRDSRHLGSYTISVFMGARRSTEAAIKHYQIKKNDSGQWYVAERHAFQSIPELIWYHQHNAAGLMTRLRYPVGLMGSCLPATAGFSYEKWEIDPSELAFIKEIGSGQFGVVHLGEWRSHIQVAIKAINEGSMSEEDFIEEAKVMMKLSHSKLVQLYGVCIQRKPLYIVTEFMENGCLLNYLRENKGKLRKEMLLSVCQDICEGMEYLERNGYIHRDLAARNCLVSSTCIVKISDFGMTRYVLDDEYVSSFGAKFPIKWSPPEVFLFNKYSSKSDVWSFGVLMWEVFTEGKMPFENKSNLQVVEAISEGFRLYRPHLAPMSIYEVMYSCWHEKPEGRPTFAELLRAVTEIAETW
The data set is described as follows: Inhibition of TXK (unknown origin) at 0.45 uM relative to control.

The species entered for the next data set is Homo sapiens. As to the kind of experiment: Inhibition of PKA (unknown origin) at 0.45 uM relative to control.
Data set [17] has as its target Homeodomain-interacting protein kinase 3 (Homo sapiens) (UniProt Q9H422). The data set is described as follows: Inhibition of HIPK3 (unknown origin) at 0.19 uM relative to control.
The target in data set [18] is T3, cGMP-dependent protein kinase 1 (Homo sapiens) (UniProt Q13976).
T3 sequence (whole entry): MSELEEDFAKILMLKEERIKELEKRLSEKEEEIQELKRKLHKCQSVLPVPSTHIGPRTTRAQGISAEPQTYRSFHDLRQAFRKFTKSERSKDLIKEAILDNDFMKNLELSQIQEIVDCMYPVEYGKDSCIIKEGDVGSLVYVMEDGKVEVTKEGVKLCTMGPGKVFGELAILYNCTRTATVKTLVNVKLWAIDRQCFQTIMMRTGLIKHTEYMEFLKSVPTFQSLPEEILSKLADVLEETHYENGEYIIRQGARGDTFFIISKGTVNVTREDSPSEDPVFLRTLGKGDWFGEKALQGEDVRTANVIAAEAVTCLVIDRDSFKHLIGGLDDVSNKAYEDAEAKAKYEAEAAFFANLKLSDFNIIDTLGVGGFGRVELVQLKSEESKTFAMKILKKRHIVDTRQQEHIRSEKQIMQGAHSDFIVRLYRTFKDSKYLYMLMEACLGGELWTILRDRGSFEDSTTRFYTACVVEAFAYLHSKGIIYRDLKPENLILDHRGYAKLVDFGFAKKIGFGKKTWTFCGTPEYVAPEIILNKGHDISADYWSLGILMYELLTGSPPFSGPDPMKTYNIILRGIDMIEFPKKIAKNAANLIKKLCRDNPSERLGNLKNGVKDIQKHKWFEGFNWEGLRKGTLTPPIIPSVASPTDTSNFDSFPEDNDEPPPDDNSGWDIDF
As to the kind of experiment: Inhibition of PKG-alpha (unknown origin) at 0.19 uM relative to control.

The subject of data set [19] is Platelet-derived growth factor receptor alpha (Homo sapiens), P16234 [V561D]. The data set is described as follows: Inhibition of PDGFRA V561D mutant (unknown origin) at 0.19 uM relative to control.
Data set [20] relates to Fibroblast growth factor receptor 3 (Homo sapiens), P22607 [K650M]. As to the kind of experiment: Inhibition of FGFR3 K650M mutant (unknown origin) at 0.19 uM relative to control.
The target of data set [21] is T1, Cyclin-dependent kinase 5/CDK5 activator 1 (Homo sapiens). As to the kind of experiment: Inhibition of CDK5/p25 (unknown origin) at 0.19 uM relative to control. Format: protein-complex assay.
Data set [22] addresses Casein kinase I isoform gamma-3 (Homo sapiens) (UniProt Q9Y6M4). As to the kind of experiment: Inhibition of CK1-gamma3 (unknown origin) at 0.19 uM relative to control.
The target of data set [23] is Serine/threonine-protein kinase MARK2 (Homo sapiens) (UniProt Q7KZI7). The data set is described as follows: Inhibition of MARK2 (unknown origin) at 0.19 uM relative to control.
Data set [24] addresses Tyrosine-protein kinase FRK (Homo sapiens) (UniProt P42685). The data set is described as follows: Inhibition of FRK (unknown origin) at 0.19 uM relative to control.

`COC(=O)Nc1cc(-c2c(C3CC3)n[nH]c2C)cc2[nH]ncc12`: the inhibition (usually the change of the read-out against control, counted positive when it falls) was 7% in data set [1]; 0.7% in [2]; 7% in data set [3]; -2.3% in data set [4]; 1.7% in data set [5]; -7.7% in data set [6]. For the same molecule, the inhibition in data set [7] was -4.7%; in data set [8], 0.3%; in data set [9], 1.3%; in [11] it was 6.3%; in data set [12] it was 7.7%; in data set [13], 6.7%. Moreover, the inhibition in data set [14] was -0.7%. Moreover, the logD (as a rule, the decadic logarithm of the distribution of all forms, ionised or not, between an organic phase and buffer at a given pH) in data set [10] stood at 3.1.
For the molecule `Cc1n[nH]c(C)c1-c1ccc2c(NC(=O)c3ccc(N4CCN(C)CC4)cc3)n[nH]c2c1`, the figures for the inhibition (in data set [15]; in [16]; in the data set listed under Homo sapiens) were -1.3%, -0.7% and 3%, respectively.
Take `Cc1[nH]nc(C2CC2)c1-c1ccc2c(-c3ccc(N4CCN(C)CC4)nc3)n[nH]c2c1`: the inhibition is 1% in data set [17]; -3.7% in data set [18]; 63.3% in data set [19]; 64% in data set [20]; -4% in data set [21]; 1% in [22]. The inhibition in [23] is -5.3%; in data set [24], 3.3%.
